{"source": "patent US7326772B2", "about": "“Peptide for assaying hERG channel binding” (Penta Biotech, Inc., priority 2005, dated 2008)", "key": {"hERG channel": {"target": "T1, hERG channel (Homo sapiens, UniProt Q12809)", "T1 construct": "host or cells: HEK-293 (hERG/HEK-293 cell line, clone 16), membrane preparation", "T1 sequence (Q12809 whole entry, looked up)": "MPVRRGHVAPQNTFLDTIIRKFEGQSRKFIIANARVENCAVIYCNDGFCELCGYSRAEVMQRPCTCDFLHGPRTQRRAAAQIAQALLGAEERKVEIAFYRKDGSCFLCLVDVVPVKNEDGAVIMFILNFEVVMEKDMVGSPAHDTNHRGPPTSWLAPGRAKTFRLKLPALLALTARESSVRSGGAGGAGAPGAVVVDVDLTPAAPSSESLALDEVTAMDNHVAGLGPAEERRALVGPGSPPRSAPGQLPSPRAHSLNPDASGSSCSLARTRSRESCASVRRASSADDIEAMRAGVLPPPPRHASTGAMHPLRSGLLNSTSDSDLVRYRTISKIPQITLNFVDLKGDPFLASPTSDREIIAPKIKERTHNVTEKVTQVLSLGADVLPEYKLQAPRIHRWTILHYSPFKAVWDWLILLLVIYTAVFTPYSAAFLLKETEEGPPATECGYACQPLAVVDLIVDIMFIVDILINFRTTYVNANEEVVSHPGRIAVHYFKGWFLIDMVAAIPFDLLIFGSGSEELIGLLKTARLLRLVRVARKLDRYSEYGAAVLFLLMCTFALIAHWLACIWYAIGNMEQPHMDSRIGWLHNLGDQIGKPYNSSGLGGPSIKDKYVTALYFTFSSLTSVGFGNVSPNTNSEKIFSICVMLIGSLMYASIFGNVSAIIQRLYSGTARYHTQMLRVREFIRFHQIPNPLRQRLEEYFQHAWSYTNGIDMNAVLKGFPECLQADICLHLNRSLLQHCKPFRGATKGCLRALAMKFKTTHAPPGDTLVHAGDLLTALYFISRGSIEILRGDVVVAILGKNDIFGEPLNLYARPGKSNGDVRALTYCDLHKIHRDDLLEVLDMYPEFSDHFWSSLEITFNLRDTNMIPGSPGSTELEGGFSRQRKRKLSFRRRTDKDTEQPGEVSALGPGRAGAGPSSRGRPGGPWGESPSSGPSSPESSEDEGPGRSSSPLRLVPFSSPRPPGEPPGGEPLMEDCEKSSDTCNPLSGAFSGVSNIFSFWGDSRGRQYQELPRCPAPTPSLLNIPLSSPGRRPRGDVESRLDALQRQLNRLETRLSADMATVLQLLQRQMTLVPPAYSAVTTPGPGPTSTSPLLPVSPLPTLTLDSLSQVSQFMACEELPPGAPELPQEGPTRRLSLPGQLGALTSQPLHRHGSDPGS", "assay": "Ki (average)", "excerpt": "Table printed on a drawing sheet, FIG. 4\nTitle: Ki of BeKm-1 Analogs in Two Independent FlashBlue Competition Assays.\nHead of the field: Ki (average)\nFirst copying reader's note: The table is panel A of FIG. 4; panel B is a plot and is left out."}, "[1]": {"target": "T2, hERG K+ channel membranes (hERG/HEK-293 cell line, clone 16) (Homo sapiens, UniProt Q12809)", "T2 construct": "host or cells: HEK-293 (hERG/HEK-293 cell line, clone 16), membrane preparation", "T2 sequence (Q12809 whole entry)": "as the sequence (Q12809 whole entry, looked up) above", "assay": "homogeneous [125I]-BeKm-1 FlashBlue competition assay", "format": "binding", "settings": "[125I]-BeKm-1 at 0.17 nM; acetate and TFA salts; one hour at room temperature", "procedure": "Acetate and TFA salts of (SeC)^7-BeKm-1 were tested in homogeneous [^125I]-BeKm-1 competition assays using FlashBlue GPCR beads and hERG K^+ channel membranes derived from Perkin Elmer's hERG/HEK-293 cell line (clone 16). […] Assays were run in buffer composed of 20 mM Hepes/Tris pH 7.2, 100 μM KCl, 0.5% BSA. 1.25 μg hERG K^+ channel membranes and 62.5 μg FlashBlue GPCR beads were added to each well of a 384-well white Optiplate. The total assay volume for each well was 40 μl. Plates were spun briefly after a one hour incubation at room temperature prior to signal detection with a TopCount apparatus."}}, "note": "Counter-ions that a name gives are not always drawn. Bridge positions count the residues as written; N and C are the ends. Peptide text beside a SMILES is read from it."}
{"compound": "CC[C@H](C)[C@H](NC(=O)[C@H](CC(=O)O)NC(=O)[C@@H](NC(=O)[C@@H]1CCCN1C(=O)[C@@H](N)CCCNC(=N)N)[C@@H](C)O)C(=O)N[C@@H](CCCCN)C(=O)N[C@H]1CSSC[C@@H]2NC(=O)[C@H](CCCNC(=N)N)NC(=O)CNC(=O)[C@H](CC(N)=O)NC(=O)[C@H]([C@@H](C)O)NC(=O)[C@H](CCCCN)NC(=O)CNC(=O)[C@H](Cc3ccccc3)NC(=O)[C@H](CCCNC(=N)N)NC(=O)[C@H](CO)NC(=O)[C@H](CCCCN)NC(=O)[C@@H]3CSSC[C@@H](C(=O)N[C@@H](Cc4ccccc4)C(=O)O)NC(=O)[C@H](CC(=O)O)NC(=O)[C@H](CSSC[C@H](NC(=O)[C@H](CCC(N)=O)NC(=O)[C@H](Cc4ccc(O)cc4)NC(=O)[C@H](CO)NC(=O)[C@H](CCC(=O)O)NC(=O)[C@H](CO)NC1=O)C(=O)N[C@@H](Cc1ccccc1)C(=O)N1CCC[C@H]1C(=O)N[C@@H](C(C)C)C(=O)N3)NC(=O)[C@H](Cc1ccccc1)NC(=O)CNC(=O)[C@H](CC(N)=O)NC(=O)[C@H](C(C)C)NC2=O", "note": "[BeKm-1 TFA Salt] (H-RPTDIKCSESYQCFPVCKSRFGKTNGRCVNGFCDCF-OH; disulfide 7-28, 13-33, 17-35 (inferred))", "values": [{"measurement": "Ki", "setting": "hERG channel", "result": 0.35, "unit": "nM"}]}
{"compound": "RPTDIKCSESYQCFPVCKSRFGKTNGRCVNGFCDCF [(SeC)^7-BeKm-1]", "values": [{"measurement": "affinity for the hERG channel (Ki, FIG. 4)", "setting": "[1]", "result": "comparable to that of native BeKm-1"}]}
